Experimental data as given in US20040053822A1, “Inducing cellular immune responses to mage2/3 using peptide and nucleic acid compositions” (priority 2002, published 2004).

Tests used:
HLA-A*6802 = HLA-A*6802 (Homo sapiens, UniProt P04439, A269V/D140Y/D185E/E176V/E277Q/E87N/F33Y/G231S/I121R/I166T/I218V/L180W/L300P/L318F/N151K/P208A/P217A/Q86R/R138H/R169H/S129P/T345S/V36M); assay: Purified HLA class I peptide binding assay, A*6802; conditions: binding affinity, A2 supermotif peptides and analogs
HLA-A*0203 = HLA-A*0203 (Homo sapiens, UniProt P04439, A173T/D140Y/D185E/D98H/E277Q/G131W/G231S/I119V/I121R/I166T/I218V/L180W/L300P/L318F/N151K/N90K/P208A/P217A/Q86G/Q94H/R138H/R169H/T345S); assay: Purified HLA class I peptide binding assay, A*0203; conditions: binding affinity, A2 supermotif peptides and analogs
HLA-A*0206 = HLA-A*0206 (Homo sapiens, UniProt P04439, D140Y/D185E/D98H/E176V/E277Q/F33Y/G131W/G231S/I119V/I121R/I166T/I218V/L300P/L318F/N151K/N90K/P208A/P217A/Q86G/Q94H/R138H/R169H/T345S); assay: Purified HLA class I peptide binding assay, A*0206; conditions: binding affinity, A2 supermotif peptides and analogs
HLA-A*0201 = HLA-A*0201 (Homo sapiens, UniProt P04439, D140Y/D185E/D98H/E176V/E277Q/G131W/G231S/I119V/I121R/I166T/I218V/L300P/L318F/N151K/N90K/P208A/P217A/Q86G/Q94H/R138H/R169H/T345S); assay: Purified HLA class I peptide binding assay, A*0201; conditions: binding affinity, A2 supermotif peptides and analogs
[1] = test system: melanoma cell lines (624 mel and 888 mel); assay: Primary CTL induction, 51Cr release on tumor targets (endogenous recognition); format: cell-based, human; conditions: number of donors positive over total tested; tumor targets
Experimental: (§1) The melanoma cells were treated with 100 U/ml IFNγ (Genzyme) for 48 hours at 37° C. before use as targets in the ^51Cr release and in situ IFNγ assays.
(§2) Restimulation of the induction cultures with peptide-pulsed adherent cells: Seven and fourteen days after the primary induction the cells were restimulated with peptide-pulsed adherent cells. The PBMCS were thawed and washed twice with RPMI and DNAse. The cells were resuspended at 5×10^6 cells/ml and irradiated at ˜4200 rads. The PBMCs were plated at 2×10^6 in 0.5 ml complete medium per well and incubated for 2 hours at 37° C. The plates were washed twice with RPMI by tapping the plate gently to remove the nonadherent cells and the adherent cells pulsed with 10 μg/ml of peptide in the presence of 3 μg/ml β2 microglobulin in 0.25 ml RPMI/5% AB per well for 2 hours at 37° C. Peptide solution from each well was aspirated and the wells were washed once with RPMI. Most of the media was aspirated from the induction cultures (CD8+ cells) and brought to 0.5 ml with fresh media. The cells were then transferred to the wells containing the peptide-pulsed adherent cells. Twenty four hours later rhuman IL10 was added at a final concentration of 10 ng/ml and rhuman IL2 was added the next day and again 2-3 days later at 50 IU/ml (Tsai et al., Critical Reviews in Immunology 18(l-2):65-75, 1998). Seven days later the cultures were assayed for CTL activity in a ^51Cr release assay. In some experiments the cultures were assayed for peptide-specific recognition in the in situ IFNγ ELISA at the time of the second restimulation followed by assay of endogenous recognition 7 days later. After expansion, activity was measured in both assays for a side by side comparison.
Seven days after the second restimulation, cytotoxicity was determined in a standard (5 hr) ^51Cr release assay by assaying individual wells at a single E:T. Peptide-pulsed targets were prepared by incubating the cells with 10 μg/ml peptide overnight at 37° C.
Adherent target cells were removed from culture flasks with trypsin-EDTA. Target cells were labelled with 200 μCi of ^51Cr sodium chromate (Dupont, Wilmington, Del.) for 1 hour at 37° C. […] Target cells.(100 μl) and 100 μl of effectors were plated in 96 well round-bottom plates and incubated for 5 hours at 37° C. At that time, 100 μl of supernatant were collected from each well and percent lysis was determined according to the formula: [(cpm of the test sample−cpm of the spontaneous ^51Cr release sample)/(cpm of the maximal ^51Cr release sample−cpm of the spontaneous ^51Cr release sample)]×100. Maximum and spontaneous release were determined by incubating the labelled targets with 1% Trition X-100 and media alone, respectively.
CTL Expansion. […] The cells were split if the cell concentration exceeded 1×10^6/ml and the cultures were assayed between days 13 and 15 at E:T ratios of 30, 10, 3 and 1:1 in the ^51Cr release assay or at 1×10^6/ml in the in situ IFNγ assay using the same targets as before the expansion.
The A2-supermotif cross-reactive binding peptides that were selected for further evaluation were tested in the cellular assay for the ability to induce peptide-specific CTL in normal individuals.

[2] = test system: 0.221A2.1 cell line (peptide-loaded target); assay: Primary CTL induction from normal donor PBMC, 51Cr release on peptide-pulsed targets; format: cell-based, human; conditions: number of donors positive over the total number of donors tested
Experimental: as §1
The monocytes were purified by plating 10×10^6 PBMC/well in a 6-well plate. After 2 hours at 37° C., the non-adherent cells were removed by gently shaking the plates and aspirating the supernatants. The wells were washed a total of three times with 3 ml RPMI to remove most of the non-adherent and loosely adherent cells. Three ml of complete medium containing 50 ng/ml of GM-CSF and 1,000 U/ml of IL4 were then added to each well. DC were used for CTL induction cultures following 7 days of culture.
Induction of CTL with DC and Peptide: CD8+ T-cells were isolated by positive selection with Dynal immunomagnetic beads (Dynabeads® M-450) and the detacha-bead® reagent. Typically about 200-250×10^6 PBMC were processed to obtain 24×10^6 CD8^+ T-cells (enough for a 48-well plate culture). Briefly, the PBMCs were thawed in RPMI with 30 μg/ml DNAse, washed once with PBS containing 1% human AB serum and resuspended in PBS/1% AB serum at a concentration of 20×10^6 cells/ml. The magnetic beads were washed 3 times with PBS/AB serum, added to the cells (140 μl beads/20×10^6 cells) and incubated for 1 hour at 4° C. with continuous mixing. The beads and cells were washed 4× with PBS/AB serum to remove the nonadherent cells and resuspended at 100×10^6 cells/ml (based on the original cell number) in PBS/AB serum containing 100 μ/ml detacha-bead® reagent and 30 μg/ml DNAse. The mixture is incubated for 1 hour at room temperature with continuous mixing. The beads were washed again with PBS/AB/DNAse to collect the CD8+ T-cells. The DC were collected and centrifuged at 1300 rpm for 5-7 minutes, washed once with PBS with 1% BSA, counted and pulsed with 40 μg/ml of peptide at a cell concentration of 1-2×10^6/ml in the presence of 3 μg/ml β2- microglobulin for 4 hours at 20° C. The DC were then irradiated (4,200 rads), washed 1 time with medium and counted again.
Setting up induction cultures: 0.25 ml cytokine-generated DC (@1×10^5 cells/ml) were co-cultured with 0.25 ml of CD8+ T-cells (@2×10^6 cell/ml) in each well of a 48-well plate in the presence of 10 ng/ml of IL-7. rHuman IL10 was added the next day at a final concentration of 10 ng/ml and rhuman IL2 was added 48 hours later at 10 IU/ml.
as §2, with “comparison. […]” for “comparison.”

HLA-A*0202 = HLA-A*0202 (Homo sapiens, UniProt P04439, D140Y/D185E/D98H/E176V/E277Q/G131W/G231S/I119L/I121R/I166T/I218V/L180W/L300P/L318F/N151K/N90K/P208A/P217A/Q67R/Q86G/Q94H/R138H/R169H/T345S); assay: Purified HLA class I peptide binding assay, A*0202; conditions: binding affinity, A2 supermotif peptides and analogs

SMILES	IC50 (HLA-A*6802)	IC50 (HLA-A*0203)	IC50 (HLA-A*0206)	IC50 (HLA-A*0201)	IC50 (HLA-A*0202)	CTL Tumor [1]	CTL Wild-type [2]
CC[C@H](C)[C@H](NC(=O)[C@H](Cc1ccc(O)cc1)NC(=O)[C@H](CC(C)C)NC(=O)[C@@H](N)Cc1c[nH]cn1)C(=O)N[C@@H](Cc1ccccc1)C(=O)N[C@@H](C)C(=O)N[C@H](C(=O)N[C@@H](CS)C(=O)N[C@@H](CC(C)C)C(=O)NCC(=O)N[C@@H](CC(C)C)C(=O)O)[C@@H](C)O	4.49 µM	0.769 µM	> 10 µM	0.056 µM			
CC[C@H](C)[C@H](N)C(=O)N[C@@H](CCSC)C(=O)N1CCC[C@H]1C(=O)N[C@@H](CCCCN)C(=O)N[C@@H](C)C(=O)NCC(=O)N[C@@H](CC(C)C)C(=O)N[C@@H](CC(C)C)C(=O)N[C@H](C(=O)N[C@H](C(=O)N[C@H](C(=O)O)C(C)C)[C@@H](C)CC)[C@@H](C)CC						0/3^	3/4
CC(C)C[C@H](NC(=O)[C@H](Cc1ccc(O)cc1)NC(=O)[C@H](CCC(=O)O)NC(=O)[C@H](CO)NC(=O)[C@H](C)NC(=O)[C@@H](N)CCCCN)C(=O)N[C@@H](CCC(N)=O)C(=O)N[C@@H](CC(C)C)C(=O)N[C@H](C(=O)O)C(C)C						0/2^	2/4
CC[C@H](C)[C@H](NC(=O)[C@@H](N)CCCCN)C(=O)N[C@@H](Cc1c[nH]c2ccccc12)C(=O)N[C@@H](CCC(=O)O)C(=O)N[C@@H](CCC(=O)O)C(=O)N[C@@H](CC(C)C)C(=O)N[C@@H](CO)C(=O)N[C@@H](CCSC)C(=O)N[C@@H](CC(C)C)C(=O)O	> 10 µM	0.175 µM		0.167 µM	0.642 µM		
CSCC[C@H](NC(=O)[C@@H](N)CCCCN)C(=O)N[C@H](C(=O)N[C@@H](CCC(=O)O)C(=O)N[C@@H](CC(C)C)C(=O)N[C@H](C(=O)N[C@@H](Cc1c[nH]cn1)C(=O)N[C@@H](Cc1ccccc1)C(=O)N[C@@H](CC(C)C)C(=O)O)C(C)C)C(C)C						0/1^	1/1
CSCC[C@H](NC(=O)[C@@H](N)CCCCN)C(=O)N[C@H](C(=O)N[C@@H](CCC(=O)O)C(=O)N[C@@H](CC(C)C)C(=O)N[C@H](C(=O)N[C@@H](Cc1c[nH]cn1)C(=O)N[C@@H](Cc1ccccc1)C(=O)N[C@@H](CC(C)C)C(=O)N[C@@H](CC(C)C)C(=O)O)C(C)C)C(C)C						0/1^	1/1
CSCC[C@H](NC(=O)[C@@H](N)CCCCN)C(=O)N[C@H](C(=O)N[C@@H](CCC(=O)O)C(=O)N[C@@H](CC(C)C)C(=O)N[C@H](C(=O)N[C@@H](Cc1c[nH]cn1)C(=O)N[C@@H](Cc1ccccc1)C(=O)N[C@@H](CC(C)C)C(=O)N[C@@H](CC(C)C)C(=O)N[C@@H](CC(C)C)C(=O)O)C(C)C)C(C)C						0/1^	1/1

Second part, led by results:

IC50 (HLA-A*6802)	IC50 (HLA-A*0203)	IC50 (HLA-A*0206)	IC50 (HLA-A*0201)	IC50 (HLA-A*0202)	SMILES	CTL Tumor [1]	CTL Wild-type [2]
0.4 µM	0.0059 µM		0.02 µM	0.006 µM	CC(C)C[C@H](NC(=O)[C@H](Cc1ccccc1)NC(=O)[C@H](Cc1c[nH]cn1)NC(=O)[C@@H](NC(=O)[C@H](CC(C)C)NC(=O)[C@H](CCC(=O)O)NC(=O)[C@H](C)NC(=O)[C@H](CC(C)C)NC(=O)[C@@H](N)CCCCN)C(C)C)C(=O)O		
0.286 µM		0.026 µM	0.024 µM	0.0067 µM	CSCC[C@H](NC(=O)[C@@H](N)CCCCN)C(=O)N[C@@H](C)C(=O)N[C@@H](CCC(=O)O)C(=O)N[C@@H](CC(C)C)C(=O)N[C@H](C(=O)N[C@@H](Cc1c[nH]cn1)C(=O)N[C@@H](Cc1ccccc1)C(=O)N[C@@H](CC(C)C)C(=O)O)C(C)C		
0.17 µM		0.039 µM	0.026 µM		CSCC[C@H](NC(=O)[C@@H](N)CCCCN)C(=O)N[C@@H](C)C(=O)N[C@@H](CCC(=O)O)C(=O)N[C@@H](CC(C)C)C(=O)N[C@H](C(=O)N[C@@H](Cc1c[nH]cn1)C(=O)N[C@@H](Cc1ccccc1)C(=O)N[C@H](C(=O)O)C(C)C)C(C)C		
